Measured values taken from article PMC11770630 (Journal of Medicinal Chemistry, 2025).

Key:
[1] = tested on: HCT116 cells; details: 24 h, safety limit cell viability >80%; for Cell viability (MTT), safety at 1 μM: HCT116, 1 μM; for Cell viability (MTT), safety above 5 μM: HCT116, 5 and 10 μM
[2] = tested on: MERLIN-HCT116 cells; test: MERLIN BRET biosensor assay of mitochondria-ER distance; assay type: cell-based, human
[3] = tested on: HCT116 cells; test: Extracellular NBD-cholesterol uptake in HCT116 cells; assay type: cell-based, human; details: HCT116, 5 μM, after 3 h
[4] = tested on: ALS patient-derived lymphoblastic cell lines; test: Extracellular NBD-cholesterol uptake in patient lymphoblastic cell lines; assay type: cell-based, human; details: SOD1-ALS lymphoblastoid cell lines, 5 μM, 24 h, NBD-cholesterol 1 h
[5] = tested on: control and sALS lymphoblasts; test: Cholesteryl-esters determination; assay type: cell-based, human; details: control or sALS lymphoblasts, 5 μM for 24 h
[6] = tested on: control and sALS lymphoblasts; test: Quantification of lipid droplets; assay type: cell-based, human; details: control or sALS lymphoblasts, 5 μM for 24 h
[7] = tested on: sALS lymphoblasts; test: Mitochondrial oxygen consumption rate; assay type: cell-based, human; details: 5 μM, 24 h
[8] = tested on: lymphoblasts from sporadic ALS patients; test: Electron microscopy of lymphoblast cells; assay type: cell-based, human; details: 5 μM for 24 h

## N#Cc1ccc(NC(=O)c2cc(Cl)ccc2O)cc1 [Compound 27, 5-Chloro-N-(4-cyanophenyl)-2-hydroxybenzamide]
[1]
  Cell viability (MTT), safety at 1 μM: safe
  Cell viability (MTT), safety above 5 μM: cellular safety above 5 μM
other
  BBB passive permeation (PAMPA): demonstrated the capability to cross the BBB through passive permeation

## O=C(Nc1ccccc1)c1cc(Cl)ccc1O [Compound 24, 5-Chloro-2-hydroxy-N-phenylbenzamide]
[2]; higher doses, normalized to DMSO (MOCK)
  BRET signal change (individual data): significant BRET increases at higher doses
[3]
  Extracellular cholesterol uptake capacity: significantly increased
[4]
  Extracellular cholesterol uptake: this change was not observed
[5]
  Cholesteryl esters levels: induce the formation of cholesteryl esters
[6]
  Lipid droplet levels: increase the levels of lipid droplet
[7]
  Basal OCR: successfully restored basal OCR levels
  Spare respiratory capacity: notable improvement in spare respiratory capacity
[8]; lymphoblasts from sALS patients
  Number of MERCs (TEM): rescued the number of contacts
[8]; sALS lymphoblasts
  Lipid droplets in cytosol (TEM): displayed large lipid droplets in their cytosol
  Mitochondrial cristae structure (TEM): cristae structure was restored
[1]
  Cell viability (MTT), safety at 1 μM: safe
  Cell viability (MTT), safety above 5 μM: cellular safety above 5 μM
other
  BBB passive permeation (PAMPA): demonstrated the capability to cross the BBB through passive permeation

## O=C(Nc1ccc([N+](=O)[O-])cc1)c1cc(Cl)ccc1O [Compound 25, 5-Chloro-2-hydroxy-N-(4-nitrophenyl)benzamide]
other
  BBB passive permeation (PAMPA): demonstrated the capability to cross the BBB through passive permeation

## O=C(Nc1ccc([N+](=O)[O-])cc1Cl)c1cc(Cl)ccc1O [Compound 1, 5-Chloro-N-(2-chloro-4-nitrophenyl)-2-hydroxybenzamide, reference compound]
[2]; Homo sapiens, read-out: EC50 (BRET), HTS hit
  EC50: 8.36 µM

## O=C(Nc1cccc([N+](=O)[O-])c1)c1cc(Cl)ccc1O [Compound 29, 5-Chloro-2-hydroxy-N-(3-nitrophenyl)benzamide]
[1]
  Cell viability (MTT), safety at 1 μM: safe
  Cell viability (MTT), safety above 5 μM: cellular safety above 5 μM
other
  BBB passive permeation (PAMPA): demonstrated the capability to cross the BBB through passive permeation

## O=C(Nc1ccc([N+](=O)[O-])cc1F)c1cc(Cl)ccc1O [Compound 2, 5-Chloro-N-(2-fluoro-4-nitrophenyl)-2-hydroxybenzamide]
[1]
  Cell viability (MTT), safety at 1 μM: safe
